{"source": "patent US10968183B2", "about": "“Small molecule FIEL1 inhibitor in inflammatory and fibrotic lung injury” (UNIVERSITY OF PITTSBURGH—OF THE COMMONWEALTH SYSTEM OF …, priority 2015, dated 2021)", "target": "T1, FIEL1 (Mus musculus, UniProt Q8CHG5)", "T1 construct": "endogenous in cells; host or cells: MLE (murine lung epithelial) cells", "T1 sequence (Q8CHG5 1-789)": "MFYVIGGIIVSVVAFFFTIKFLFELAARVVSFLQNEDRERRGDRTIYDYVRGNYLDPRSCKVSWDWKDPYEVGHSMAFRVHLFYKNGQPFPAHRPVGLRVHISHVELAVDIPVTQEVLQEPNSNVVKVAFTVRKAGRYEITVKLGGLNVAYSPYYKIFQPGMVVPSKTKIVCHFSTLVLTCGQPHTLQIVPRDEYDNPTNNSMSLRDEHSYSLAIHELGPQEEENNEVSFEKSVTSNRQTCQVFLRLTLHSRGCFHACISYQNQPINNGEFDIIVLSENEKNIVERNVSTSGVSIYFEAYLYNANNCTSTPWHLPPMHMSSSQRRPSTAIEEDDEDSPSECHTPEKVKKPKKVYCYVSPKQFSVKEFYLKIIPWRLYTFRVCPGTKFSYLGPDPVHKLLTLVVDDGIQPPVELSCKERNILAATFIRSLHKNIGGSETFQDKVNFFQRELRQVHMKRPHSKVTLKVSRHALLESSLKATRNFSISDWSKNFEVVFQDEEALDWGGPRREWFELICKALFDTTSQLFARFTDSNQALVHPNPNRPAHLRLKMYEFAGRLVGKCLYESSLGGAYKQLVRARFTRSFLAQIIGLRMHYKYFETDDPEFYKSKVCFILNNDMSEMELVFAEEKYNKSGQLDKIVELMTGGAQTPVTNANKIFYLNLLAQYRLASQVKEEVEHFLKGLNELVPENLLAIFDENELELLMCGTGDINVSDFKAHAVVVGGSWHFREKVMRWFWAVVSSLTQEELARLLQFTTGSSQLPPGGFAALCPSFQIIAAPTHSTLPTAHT", "experiment": "PIAS4 protein immunoblot in MLE cells exposed to compounds", "assay_type": "cell-based, murine", "settings": "18 h, FIG. 7D", "method": "FIG. 7A. […] FIG. 7B. Structures of the BC-1480 backbone and lead compound BC-1485. FIG. 7C. FIEL1 protein was HIS-purified from FIEL1 expression in 293T cells using cobalt beads. Beads were then extensively washed prior to exposure to BC-1480 or BC-1485 at different concentrations (10^−4 to 100 μM). Purified PIAS4 protein was then incubated with drug-bound FIEL1 beads overnight. Beads were washed, and proteins were eluted and resolved on SDS-PAGE. The relative amounts of PIAS4 detected in the pull-downs was normalized to loading and quantified (n=2). FIG. 7D. MLE cells were exposed to BC-1480 or BC-1485 at various concentrations for 18 h. Cells were then collected and immunoblotted. FIGS. 7E-J. C57BL/6J mice were administered with bleomycin (0.05 U) for 7-21 days. Compounds BC-1480 and BC-1485 were given to mice through drinking water with an estimated dose of 5 mg/kg/d. Mice were euthanized, and lungs were lavaged with saline, harvested, and then homogenized. Lavage proteins, CXCL1, and total cell count were measured in FIGS. 7E-G. H. Survival studies of mice that were given bleomycin and compound treatments. Mice were carefully monitored over time; moribund, preterminal animals were immediately euthanized and recorded as deceased. […] Hydroxyproline contents were measured in lungs from 7, 14, and 21d after bleomycin challenge. […]", "data": [{"smiles": "CC(NC(=O)c1ccc(NS(=O)(=O)c2ccc3[nH]c(=O)[nH]c3c2)cc1)C(=O)N(C)C", "note": "(stereo not shown) [BC-1485]", "values": [{"measurement": "activity in increasing PIAS4 protein levels compared to BC-1480", "result": "> 100", "unit": "fold"}]}]}
